Reference: patent publication US20100267561A1, “HERBICIDAL PYRIDAZINONE DERIVATIVES” (priority 2007, published 2010)

What was measured:
Format in all cases: in vivo
[1] = tested on: ducksalad (Heteranthera limosa); assay: Test B flooded paddy test plant response
Procedure, shortened: (§1)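 Compounds were added directly to paddy water over 2-leaf-stage plants in pots flooded 3 cm above soil, water depth maintained. Visual injury scored against controls after 13 to 15 days in greenhouse, 0 (none) to 100 (complete control); dash indicates no result.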

[2] = tested on: rice (Oryza sativa); assay: Test B flooded paddy test plant response
Procedure, shortened: as §1

[3] = tested on: barnyardgrass (Echinochloa crus-galli); assay: Test B flooded paddy test plant response
Procedure, shortened: as §1

[4] = tested on: umbrella sedge (Cyperus difformis); assay: Test B flooded paddy test plant response
Procedure, shortened: as §1

[5] = tested on: giant foxtail (Setaria faberii); assay: Test B pre-/postemergence plant response; conditions: for Foxtail, Giant plant response rating: 8 g ai/ha
Text: (§2) Seeds of plant species selected from blackgrass (Alopecurus myosuroides), downy bromegrass (Bromus tectorum), green foxtail (Setaria viridis), Italian ryegrass (Lolium multiflorum), wheat (Triticum aestivum), wild oat (Avena fatua), catchweed bedstraw (Galium aparine), bermudagrass (Cynodon dactylon), surinam grass (Brachiaria decumbens), cocklebur (Xanthium strumarium), corn (Zea mays), large crabgrass (Digitaria sanguinalis), woolly cupgrass (Eriochloa villosa), giant foxtail (Setaria faberii), goosegrass (Eleusine indica), johnsongrass (Sorghum halepense), kochia (Kochia scoparia), lambsquarters (Chenopodium album), morningglory (Ipomoea coccinea), eastern black (E.B.) nightshade (Solanum ptycanthum), yellow nutsedge (Cyperus esculentus), pigweed (Amaranthus retroflexus), common ragweed (Ambrosia elation), Russian thistle (Salsola iberica), soybean (Glycine max), common (oilseed) sunflower (Helianthus annuus), and velvetleaf (Abutilon theophrasti) were planted and treated preemergence with test chemicals formulated in a non-phytotoxic solvent mixture which included a surfactant.
(§3) At the same time, plants selected from these crop and weed species and also winter barley (Hordeum vulgare), canarygrass (Phalaris minor), chickweed (Stellaria media) and windgrass (Apera spica-venti) were treated with postemergence applications of some of the test chemicals formulated in the same manner. Plants ranged in height from 2 to 18 cm (1- to 4-leaf stage) for postemergence treatments.
(§4) Plant species in the flooded paddy test consisted of rice (Oryza sativa), umbrella sedge (Cyperus difformis), ducksalad (Heteranthera limosa) and barnyardgrass (Echinochloa crus-galli) grown to the 2-leaf stage for testing. At time of treatment, test pots were flooded to 3 cm above the soil surface, treated by application of test compounds directly to the paddy water, and then maintained at that water depth for the duration of the test. Treated plants and controls were maintained in a greenhouse for 13 to 15 days, after which time all species were compared to controls and visually evaluated. Plant response ratings, summarized in Table B, are based on a scale of 0 to 100 where 0 is no effect and 100 is complete control. A dash (-) response means no test result.

[6] = tested on: bermudagrass (Cynodon dactylon); assay: Test B pre-/postemergence plant response; conditions: for Bermudagrass plant response rating: 8 g ai/ha
Text: as §2, §3, §4

[7] = tested on: woolly cupgrass (Eriochloa villosa); assay: Test B pre-/postemergence plant response; conditions: for Cupgrass, Woolly plant response rating: 8 g ai/ha
Text: as §2, §3, §4

[8] = tested on: downy bromegrass (Bromus tectorum); assay: Test B pre-/postemergence plant response; conditions: for Bromegrass, Downy plant response rating: 8 g ai/ha
Text: as §2, §3, §4

[9] = tested on: velvetleaf (Abutilon theophrasti); assay: Test B pre-/postemergence plant response; conditions: for Velvetleaf plant response rating: 8 g ai/ha
Text: as §2, §3, §4

[10] = tested on: cocklebur (Xanthium strumarium); assay: Test B pre-/postemergence plant response; conditions: for Cocklebur plant response rating: 8 g ai/ha
Text: as §2, §3, §4

[11] = tested on: corn (Zea mays); assay: Test B pre-/postemergence plant response; conditions: for Corn plant response rating: 8 g ai/ha
Text: as §2, §3, §4

[12] = tested on: yellow nutsedge (Cyperus esculentus); assay: Test B pre-/postemergence plant response; conditions: for Nutsedge, Yellow plant response rating: 8 g ai/ha
Text: as §2, §3, §4

[13] = tested on: Italian ryegrass (Lolium multiflorum); assay: Test B pre-/postemergence plant response; conditions: for Ryegrass, Italian plant response rating: 8 g ai/ha
Text: as §2, §3, §4

[14] = tested on: Russian thistle (Salsola iberica); assay: Test B pre-/postemergence plant response; conditions: Preemergence; for Russian Thistle plant response rating: 8 g ai/ha
Text: as §2, §3, §4

[15] = Flood (flooded paddy test), 62 g ai/ha, scale 0 to 100, 0 no effect, 100 complete control
[16] = Flood (flooded paddy test), 125 g ai/ha, scale 0 to 100, 0 no effect, 100 complete control
[17] = Flood (flooded paddy test), 250 g ai/ha, scale 0 to 100, 0 no effect, 100 complete control
[18] = Flood, 31 g ai/ha, scale 0 to 100
[19] = Postemergence, 16 g ai/ha, scale 0 to 100
[20] = Postemergence, 31 g ai/ha, scale 0 to 100, 0 no effect, 100 complete control
[21] = Postemergence, 62 g ai/ha, scale 0 to 100
[22] = Preemergence, 16 g ai/ha, scale 0 to 100 (0 no effect, 100 complete control)
[23] = Preemergence, 31 g ai/ha, 0 to 100 scale, 0 no effect, 100 complete control
[24] = Preemergence, 62 g ai/ha, scale 0 to 100
[25] = 16 g ai/ha, scale 0 to 100 (0 no effect, 100 complete control)
[26] = 31 g ai/ha, 0 to 100 scale, 0 no effect, 100 complete control

CCc1cc(-c2ccc(Cl)cc2)nn1-c1c(O)cnn(C)c1=O [Compound 21]
Plant response rating, Ducksalad [1, 15]: 0
Plant response rating, Ducksalad [1, 16]: 0
Plant response rating, Ducksalad [1, 17]: 65
Plant response rating, Ducksalad [1, 18]: 0
Plant response rating, Rice [2, 15]: 0
Plant response rating, Rice [2, 16]: 20
Plant response rating, Rice [2, 17]: 70
Plant response rating, Rice [2, 18]: 0
Plant response rating, Barnyardgrass [3, 15]: 75
Plant response rating, Barnyardgrass [3, 16]: 80
Plant response rating, Barnyardgrass [3, 17]: 100
Plant response rating, Barnyardgrass [3, 18]: 55
Plant response rating, Sedge, Umbrella [4, 15]: 0
Plant response rating, Sedge, Umbrella [4, 16]: 0
Plant response rating, Sedge, Umbrella [4, 17]: 30
Plant response rating, Sedge, Umbrella [4, 18]: 0
Foxtail, Giant plant response rating ([5]; postemergence, 0-100 scale): 98
Plant response rating, Foxtail, Giant [5, 19]: 100
Plant response rating, Foxtail, Giant [5, 20]: 100
Plant response rating, Foxtail, Giant [5, 21]: 100
Plant response rating, Foxtail, Giant [5, 22]: 100
Plant response rating, Foxtail, Giant [5, 23]: 100
Plant response rating, Foxtail, Giant [5, 24]: 100
Foxtail, Giant plant response rating ([5]; Preemergence, scale 0 to 100): 85
Bermudagrass plant response rating ([6]; postemergence, 0-100 scale): 40
Plant response rating, Bermudagrass [6, 19]: 60
Plant response rating, Bermudagrass [6, 20]: 80
Plant response rating, Bermudagrass [6, 21]: 100
Bermudagrass plant response rating ([6]; Preemergence, scale 0 to 100 (0 no effect, 100 complete control)): 60
Plant response rating, Bermudagrass [6, 22]: 80
Plant response rating, Bermudagrass [6, 23]: 85
Plant response rating, Bermudagrass [6, 24]: 100
Cupgrass, Woolly plant response rating ([7]; postemergence, 0-100 scale): 100
Plant response rating, Cupgrass, Woolly [7, 19]: 100
Plant response rating, Cupgrass, Woolly [7, 20]: 100
Plant response rating, Cupgrass, Woolly [7, 21]: 100
Plant response rating, Cupgrass, Woolly [7, 22]: 100
Plant response rating, Cupgrass, Woolly [7, 24]: 100
Cupgrass, Woolly plant response rating ([7]; Preemergence, scale 0 to 100): 60
Bromegrass, Downy plant response rating ([8]; postemergence, 0-100 scale): 55
Plant response rating, Bromegrass, Downy [8, 19]: 55
Plant response rating, Bromegrass, Downy [8, 20]: 80
Plant response rating, Bromegrass, Downy [8, 21]: 85
Plant response rating, Bromegrass, Downy [8, 22]: 50
Plant response rating, Bromegrass, Downy [8, 23]: 60
Plant response rating, Bromegrass, Downy [8, 24]: 100
Bromegrass, Downy plant response rating ([8]; Preemergence, scale 0 to 100): 0
Velvetleaf plant response rating ([9]; postemergence, 0-100 scale): 0
Plant response rating, Velvetleaf [9, 19]: 0
Plant response rating, Velvetleaf [9, 20]: 0
Plant response rating, Velvetleaf [9, 21]: 0
Plant response rating, Velvetleaf [9, 23]: 0
Plant response rating, Velvetleaf [9, 24]: 0
Velvetleaf plant response rating ([9]; Preemergence, scale 0 to 100): 0
Cocklebur plant response rating ([10]; postemergence, 0-100 scale): 0
Plant response rating, Cocklebur [10, 19]: 0
Plant response rating, Cocklebur [10, 20]: 0
Plant response rating, Cocklebur [10, 21]: 0
Plant response rating, Cocklebur [10, 22]: 0
Plant response rating, Cocklebur [10, 23]: 0
Plant response rating, Cocklebur [10, 24]: 0
Cocklebur plant response rating ([10]; Preemergence, scale 0 to 100): 0
Corn plant response rating ([11]; postemergence, 0-100 scale): 50
Plant response rating, Corn [11, 19]: 100
Plant response rating, Corn [11, 20]: 100
Plant response rating, Corn [11, 21]: 100
Plant response rating, Corn [11, 22]: 80
Plant response rating, Corn [11, 23]: 95
Plant response rating, Corn [11, 24]: 98
Corn plant response rating ([11]; Preemergence, scale 0 to 100): 70
Nutsedge, Yellow plant response rating ([12]; postemergence, 0-100 scale): 0
Plant response rating, Nutsedge, Yellow [12, 19]: 0
Plant response rating, Nutsedge, Yellow [12, 20]: 0
Plant response rating, Nutsedge, Yellow [12, 21]: 0
Plant response rating, Nutsedge, Yellow [12, 22]: 0
Plant response rating, Nutsedge, Yellow [12, 23]: 0
Plant response rating, Nutsedge, Yellow [12, 24]: 0
Ryegrass, Italian plant response rating ([13]; postemergence, 0-100 scale): 98
Plant response rating, Ryegrass, Italian [13, 19]: 100
Plant response rating, Ryegrass, Italian [13, 20]: 100
Plant response rating, Ryegrass, Italian [13, 21]: 100
Plant response rating, Ryegrass, Italian [13, 22]: 100
Plant response rating, Ryegrass, Italian [13, 24]: 100
Ryegrass, Italian plant response rating ([13]; Preemergence, scale 0 to 100): 90
Plant response rating, Russian Thistle [14, 25]: 0
Plant response rating, Russian Thistle [14, 26]: 0
Plant response rating, Russian Thistle ([14]; 62 g ai/ha, scale 0 to 100): 0
Russian Thistle plant response rating ([14]; scale 0 to 100): 0

Cc1cc(-c2ccc(C(F)(F)F)cc2)nn1-c1c(O)c(C(C)C)nn(C)c1=O [Compound 27]
Plant response rating, Ducksalad [1, 15]: 40
Plant response rating, Ducksalad [1, 16]: 60
Plant response rating, Ducksalad [1, 17]: 75
Plant response rating, Ducksalad [1, 18]: 0
Plant response rating, Rice [2, 15]: 0
Plant response rating, Rice [2, 16]: 0
Plant response rating, Rice [2, 17]: 0
Plant response rating, Rice [2, 18]: 0
Plant response rating, Barnyardgrass [3, 15]: 0
Plant response rating, Barnyardgrass [3, 16]: 0
Plant response rating, Barnyardgrass [3, 17]: 30
Plant response rating, Barnyardgrass [3, 18]: 0
Plant response rating, Sedge, Umbrella [4, 15]: 20
Plant response rating, Sedge, Umbrella [4, 16]: 30
Plant response rating, Sedge, Umbrella [4, 17]: 65
Plant response rating, Sedge, Umbrella [4, 18]: 20
Plant response rating, Foxtail, Giant [5, 22]: 0
Plant response rating, Foxtail, Giant [5, 23]: 0
Plant response rating, Foxtail, Giant [5, 24]: 20
Foxtail, Giant plant response rating ([5]; Preemergence, scale 0 to 100): 0
Plant response rating, Bermudagrass [6, 22]: 0
Plant response rating, Bermudagrass [6, 23]: 100
Plant response rating, Bermudagrass [6, 24]: 100
Plant response rating, Cupgrass, Woolly [7, 22]: 0
Plant response rating, Cupgrass, Woolly [7, 23]: 30
Plant response rating, Cupgrass, Woolly [7, 24]: 55
Cupgrass, Woolly plant response rating ([7]; Preemergence, scale 0 to 100): 0
Plant response rating, Bromegrass, Downy [8, 22]: 0
Plant response rating, Bromegrass, Downy [8, 23]: 50
Plant response rating, Bromegrass, Downy [8, 24]: 50
Bromegrass, Downy plant response rating ([8]; Preemergence, scale 0 to 100): 0
Plant response rating, Velvetleaf [9, 22]: 0
Plant response rating, Velvetleaf [9, 23]: 0
Plant response rating, Velvetleaf [9, 24]: 0
Velvetleaf plant response rating ([9]; Preemergence, scale 0 to 100): 0
Plant response rating, Cocklebur [10, 22]: 0
Plant response rating, Cocklebur [10, 23]: 0
Plant response rating, Cocklebur [10, 24]: 0
Cocklebur plant response rating ([10]; Preemergence, scale 0 to 100): 0
Plant response rating, Corn [11, 22]: 0
Plant response rating, Corn [11, 23]: 75
Plant response rating, Corn [11, 24]: 85
Corn plant response rating ([11]; Preemergence, scale 0 to 100): 0
Plant response rating, Nutsedge, Yellow [12, 22]: 0
Plant response rating, Nutsedge, Yellow [12, 23]: 0
Plant response rating, Nutsedge, Yellow [12, 24]: 0
Nutsedge, Yellow plant response rating ([12]; Preemergence, scale 0 to 100): 0
Plant response rating, Ryegrass, Italian [13, 22]: 0
Plant response rating, Ryegrass, Italian [13, 23]: 70
Plant response rating, Ryegrass, Italian [13, 24]: 95
Ryegrass, Italian plant response rating ([13]; Preemergence, scale 0 to 100): 0
Plant response rating, Russian Thistle [14, 25]: 0
Plant response rating, Russian Thistle [14, 26]: 0
Plant response rating, Russian Thistle ([14]; 62 g ai/ha, scale 0 to 100): 0
Russian Thistle plant response rating ([14]; scale 0 to 100): 0
